Data set [1] in a line: mean mass diameter determination by laser diffraction. To be noted: for Mean mass diameter: laser diffraction, four different samples made by the procedure of example 1, Hydrate. The format is physicochemical. From the text:
For mean mass diameter Master Sizer of Malvern Instrument LTD U.K. was used under the conditions listed below:
Analysis model: Polydisperse
Obstruction value: 20-23%

A further data set concerns resistant mutants. Kind of data set: treating resistant mutants.
A further data set deals with respiratory pathogens. Kind of data set: treating respiratory pathogens.
Data set [2] in a line: antibacterial minimum inhibitory concentration (MIC). It counts as cell-based.
The conditions of data set [3]: in vivo.
A short description of data set [4]: hygroscopicity / moisture uptake on exposure to humidity, determined gravimetrically. The format is physicochemical.
Another data set relates to rodents. As to conditions: in vivo.
The subject of data set [5] is high density bacterial inoculum. Kind of data set: cidal effect with high density bacterial inoculum. The format is cell-based. As to conditions: high density bacterial inoculum (10^8 cfu/ml).
Data set [6] concerns slow-growing Staphylococci. Kind of data set: cidal action against slow-growing Staphylococci. The format is cell-based.
A further data set deals with Staphylococci. Kind of data set: eradication of Staphylococci from vital organs and thigh muscle. The format is in vivo. To be noted: compared with the standard drugs.
Another data set can be described thus: dissolution rate. The format is physicochemical.
The nature of data set [7]: bulk density determination. It counts as physicochemical. From the text:
Untapped density=25 g/untapped volume.
Tapped density=25 g/Tapped volume.

Data set [8] relates to resistant Staphylococcus aureus.
A further data set has as its system rats. To be noted: rat, in vivo, iv.
Setting [9] is: exposure at a relative humidity of 41%.

Several values for one entry are separate records, joined by “and”; a condition that tells them apart may be missing. Equal entries are not always repeated. Structures can show the parent of a compound that is named as a salt. Where two headings read alike, the source gives them in different places.

Take `CC1CCc2c(N3CCC(O)CC3)c(F)cc3c(=O)c(C(=O)O)cn1c23.N=C(N)NCCC[C@H](N)C(=O)O` (racemic) [Example 8, RS-(±)-9-Fluoro-6,7-dihydro-8-(4-hydroxypiperidin-1-yl)-5-methyl-1-oxo-1H,5H-benzo[i,j]quinolizine-2-carboxylic Acid L-Arginine Salt]: the antimicrobial activity result in “antimicrobial activity” is recorded as “have antimicrobial activity”.

Regarding `CC1CCc2c(N3CCC(O)CC3)c(F)cc3c(=O)c(C(=O)O)cn1c23.N=C(N)NCCC[C@@H](N)C(=O)O` (racemic) [Example 9, RS-(±)-9-Fluoro-6,7-dihydro-8-(4-hydroxypiperidin-1-yl)-5-methyl-1-oxo-1H,5H-benzo[i,j]quinolizine-2-carboxylic Acid D-Arginine Salt], in the data set “antimicrobial activity”, the antimicrobial activity result is reported as “have antimicrobial activity”.

`CC1CCc2c(N3CCC(O)CC3)c(F)cc3c(=O)c(C(=O)O)cn1c23.N=C(N)NCCCC(N)C(=O)O` (racemic) [R, S-9-fluoro-6,7-dihydro-8-(4-hydroxypiperidin-1-yl)-5-methyl-1-oxo-1H,5H-benzo[i,j]-quinolizine-2-carboxylic acid DL-arginine salt]: the antimicrobial activity result in “antimicrobial activity” is listed as “have antimicrobial activity”.

As for `C[C@@H]1CCc2c(N3CCC(O)CC3)c(F)cc3c(=O)c(C(=O)O)cn1c23.N=C(N)NCCCC(N)C(=O)O` (stereo in doubt) [R-(+)-9-fluoro-6,7-dihydro-8-(4-hydroxypiperidin-1-yl)-5-methyl-1-oxo-1H,5H-benzo[i,j]-quinolizine-2-carboxylic acid DL-arginine salt], the antimicrobial activity entry in the data set “antimicrobial activity” is “have antimicrobial activity”.

Turning to `C[C@H]1CCc2c(N3CCC(O)CC3)c(F)cc3c(=O)c(C(=O)O)cn1c23.N=C(N)NCCCC(N)C(=O)O` (stereo in doubt) [S-(−)-9-fluoro-6,7-dihydro-8-(4-hydroxypiperidin-1-yl)-5-methyl-1-oxo-1H,5H-benzo[i,j]-quinolizine-2-carboxylic acid DL-arginine salt], the antimicrobial activity entry in “antimicrobial activity” is recorded as “have antimicrobial activity”.

Consider `C[C@H]1CCc2c(N3CCC(O)CC3)c(F)cc3c(=O)c(C(=O)O)cn1c23` [Example 1, S-(−)-9-Fluoro-6,7-dihydro-8-(4-hydroxypiperidin-1-yl)-5-methyl-1-oxo-1H,5H-benzo[i,j]quinolizine-2-carboxylic Acid L-Arginine Salt Hydrate], for which the Mean mass diameter in data set [1] was 32.92 μm and 24.22 μm and 34.51 μm and 39.07 μm; in data set [1] (listed as S-(−)-9-fluoro-6,7-dihydro-8-(4-hydroxypiperidin-1-yl)-5-methyl-1-oxo-1H,5H-benz), “less than or equal to 40 μm”. The “Mean mass diameter, mean value” in data set [1] (mean of four samples of Table 1) was determined as 32.68 μm. Also, the “effectiveness in treating resistant mutants” value with resistant mutants is “effective”. Also, the “effectiveness in treating respiratory pathogens” value in the data set on respiratory pathogens is on record as “effective”. Moreover, in data set [2], the “antibacterial minimum inhibitory concentration (MIC) values compared with the free acid” value is recorded as “same antibacterial minimum inhibitory concentration (MIC) values as the free active ingredient”. The “retention of potency at acidic pH” value in data set [2] (acidic pH of 5.5) was “unusual ability to retain potency”. The bioavailability result in [3] is “good bioavailability”. Besides, the hygroscopicity result in data set [4] is given as “to a certain degree hygroscopic”. For the same compound, in data set [4] (at specified humidity levels), the “moisture absorption compared with the sodium salt” value was “less prone than the sodium salt to absorb moisture”. In addition, in the data set with rodents, the toxicity entry is on record as “less toxic in rodents than the alkali salt forms”. In data set [5], the cidal effect entry is given as “unusual superior cidal effect”. For the same compound, the cidal action result in data set [6] was “superior cidal action”. Besides, the eradication efficacy result in the data set on Staphylococci was “scores over the standard drugs”. For the same compound, the dissolution rate result in the data set “dissolution rate” is “acceptable dissolution rate”. Further, the “bulk density (tapped)” value in data set [7] (25 gm/tapped volume, tapped 150 times) is 0.64 g/mL. In addition, in [7] (25 gm/untapped volume), the “bulk density (untapped)” value stood at 0.57 g/mL. Besides, the “activity against resistant Staphylococcus aureus” value in data set [8] was “potent activity”. In addition, the “propensity to cause phlebitis” value in the data set on rats is “lower propensity to cause phlebitis than the sodium and potassium salts”.

Take `C[C@H]1CCc2c(N3CCC(O)CC3)c(F)cc3c(=O)c(C(=O)O)cn1c23.N=C(N)NCCC[C@@H](N)C(=O)O` [Example 5, S-(−)-9-Fluoro-6,7-dihydro-8-(4-hydroxypiperidin-1-yl)-5-methyl-1-oxo-1H,5H-benzo[i,j]quinolizine-2-carboxylic Acid D-Arginine Salt]: in the data set “antimicrobial activity”, the antimicrobial activity result was “have antimicrobial activity”.

Turning to `C[C@@H]1CCc2c(N3CCC(O)CC3)c(F)cc3c(=O)c(C(=O)O)cn1c23.N=C(N)NCCC[C@H](N)C(=O)O` [Example 6, R-(+)-9-Fluoro-6,7-dihydro-8-(4-hydroxypiperidin-1-yl)-5-methyl-1-oxo-1H,5H-benzo[i,j]quinolizine-2-carboxylic Acid L-Arginine Salt], the antimicrobial activity result in the data set “antimicrobial activity” was “have antimicrobial activity”.

As for `C[C@@H]1CCc2c(N3CCC(O)CC3)c(F)cc3c(=O)c(C(=O)O)cn1c23.N=C(N)NCCC[C@@H](N)C(=O)O` [Example 7, R-(+)-9-Fluoro-6,7-dihydro-8-(4-hydroxypiperidin-1-yl)-5-methyl-1-oxo-1H,5H-benzo[i,j]quinolizine-2-carboxylic Acid D-Arginine Salt], the antimicrobial activity entry in the data set “antimicrobial activity” is “have antimicrobial activity”.

On to “S-(−)-9-fluoro-6,7-dihydro-8-(4-hydroxypiperidin-1-yl)-5-methyl-1-oxo-1H,5H-benzo[i,j]quinolizine-2-carboxylic acid [reference compound]”, for which the “antimicrobial activity compared with the R-(+)- and RS- acids” value in “antimicrobial activity” is “more potent antimicrobial activity”.

Consider “S-(−)-9-fluoro-6,7-dihydro-8-(4-hydroxypiperidin-1-yl)-5-methyl-1-oxo-1H,5H-benzo[i,j]quinolizine-2-carboxylic acid, L-arginine salt 0.25 hydrate [reference compound]”, for which the hygroscopicity result in [4] (setting [9]) was “highly hygroscopic and turn into syrups”.

For the compound “S-(−)-9-fluoro-6,7-dihydro-8-(4-hydroxypiperin-1-yl)-5-methyl-1-oxo-1H,5H-benzo[i,j]quinolizine-2-carboxylic acid, L-arginine salt, 0.75 hydrate [reference compound]”, in [4] (setting [9]), the hygroscopicity entry is “highly hygroscopic and turn into syrups”.

Source of the values: patent publication US6664267B1, “Crystalline fluoroquinolone arginine salt form” (Wockhardt Limited, priority 2002, dated 2003).
